{"source": "patent US20240158439A1", "about": "“INHIBITORS OF ANTIGEN PRESENTATION BY MHC CLASS II HLA-DRB1*15:01 MOLECULES WITH ENHANCED METABOLIC STABILITY” (Provid Pharmaceuticals Inc., priority 2021, published 2024)", "note": "*1 amine or outer side, *2 acyl side, *3 side chain or, on linkers, in order; H or OH if unused. Where a SMILES comes first, the peptide text is derived from it. Where no end group is shown, it is not given here. [ ]: non-standard residue; d: D form. ξ: configuration not given here. ξGly(4-Pip(1-amidino)) = N=C(N)N1CCC(C(N)C(=O)O)CC1; Ala(indol-4-yl) = N[C@@H](Cc1cccc2[nH]ccc12)C(=O)O; Phe(3,4-Cl2) = N[C@@H](Cc1ccc(Cl)c(Cl)c1)C(=O)O; Trp(1-Me) = Cn1cc(C[C@H](N)C(=O)O)c2ccccc21; X3 = Nc1nc(C[C@H](N[*:1])C(=O)[*:2])c[nH]1; Phe(4-F) = N[C@@H](Cc1ccc(F)cc1)C(=O)O; Dab(CONH2) = NC(=O)NCC[C@H](N)C(=O)O; Bta = N[C@@H](Cc1csc2ccccc12)C(=O)O; Gly(cPent) = N[C@H](C(=O)O)C1CCCC1; Igl = N[C@H](C(=O)O)C1Cc2ccccc2C1; Tic = O=C(O)[C@@H]1Cc2ccccc2CN1; Cit = NC(=O)NCCC[C@H](N)C(=O)O; Agb = N=C(N)NCC[C@H](N)C(=O)O; Chg = N[C@H](C(=O)O)C1CCCCC1; βAla = NCCC(=O)O; Sar = CNCC(=O)O"}
{"biological_target": "T1, HLA-DRB1*15:01 (Homo sapiens, UniProt P01903+P01911)", "T1 construct": "endogenous in cells; host or cells: EBV homozygous cell lines (human)", "experiment": "HLA II binding assay (competitive, biotinylated reference peptide)", "settings": "N-methyl amide vs primary amide", "units": {"loss in binding affinity relative to PV-267": "fold"}}
{"compound": "CNC(=O)[C@H](Cc1ccccc1)NC(=O)[C@@H]1Cc2ccccc2CN1C(=O)[C@H](CCCNC(=N)N)NC(=O)[C@@H](NC(=O)[C@@H](NC(C)=O)C(C)C)C1CCCCC1", "note": "[PV-625] (Ac-V[Chg]R[Tic]F-NHMe)", "loss in binding affinity relative to PV-267": 8}
{"biological_target": "T1, HLA-DRB1*15:01", "experiment": "HLA II binding assay (competitive, biotinylated reference peptide)", "settings": "Table 2, DRB1*15:01 binding; unit inferred, nM; read-out: Avg IC50", "units": {"IC50": "nM"}}
{"compound": "CC(C)[C@H](NC(=O)CN)C(=O)N[C@H](C(=O)N[C@@H](CCCNC(=N)N)C(=O)N1Cc2ccccc2C[C@H]1C(=O)N[C@@H](Cc1ccccc1)C(N)=O)C1CCCCC1", "note": "[PV-633] (H-GV[Chg]R[Tic]F-NH2)", "IC50": 1}
{"compound": "CC(=O)N[C@H](C(=O)N[C@H](C(=O)N[C@@H](CCCNC(=N)N)C(=O)N1Cc2ccccc2C[C@H]1C(=O)N[C@@H](Cc1cccc2[nH]ccc12)C(N)=O)C1CCCCC1)C(C)C", "note": "[PV-493] (Ac-V[Chg]R[Tic][Ala(indol-4-yl)]-NH2)", "IC50": 1.5}
{"compound": "CC(=O)N[C@H](C(=O)N[C@H](C(=O)N[C@@H](CCCNC(=N)N)C(=O)N1Cc2ccccc2C[C@H]1C(=O)N[C@@H](Cc1ccccc1)C(=O)O)C1Cc2ccccc2C1)C(C)C", "note": "[PV-624] (Ac-V[Igl]R[Tic]F-OH)", "IC50": 161}
{"compound": "CO[C@H](C)[C@H](NC(C)=O)C(=O)N[C@H](C(=O)N[C@@H](CCCNC(=N)N)C(=O)N1Cc2ccccc2C[C@H]1C(=O)N[C@@H](Cc1ccccc1)C(N)=O)C1CCCCC1", "note": "[PV-592] (Ac-T(Me)[Chg]R[Tic]F-NH2)", "IC50": 4.1}
{"compound": "CC(=O)N[C@H](C(=O)N[C@H](C(=O)N[C@@H](CCCNC(=N)N)C(=O)N1Cc2ccccc2C[C@H]1C(=O)N[C@@H](Cc1ccccc1)C(N)=O)C1CCCCC1)[C@@H](C)O", "note": "[PV-526] (Ac-T[Chg]R[Tic]F-NH2)", "IC50": 29}
{"compound": "CC(=O)N[C@H](C(=O)N[C@@H](CCCNC(=N)N)C(=O)N1Cc2ccccc2C[C@H]1C(=O)N[C@@H](Cc1cn(C)c2ccccc12)C(N)=O)C1CCCCC1", "note": "[PV-508] (Ac-[Chg]R[Tic][Trp(1-Me)]-NH2)", "IC50": 213}
{"compound": "CC(C)[C@H](NC(=O)CN)C(=O)N[C@H](C(=O)N[C@@H](CCCNC(N)=O)C(=O)N1Cc2ccccc2C[C@H]1C(=O)N[C@@H](Cc1ccccc1)C(N)=O)C1CCCCC1", "note": "[PV-661] (H-GV[Chg][Cit][Tic]F-NH2)", "IC50": 5}
{"compound": "CC(=O)N[C@H](C(=O)N[C@H](C(=O)N[C@@H](Cc1c[nH]c(N)n1)C(=O)N1Cc2ccccc2C[C@H]1C(=O)N[C@@H](Cc1ccccc1)C(N)=O)C1CCCCC1)C(C)C", "note": "[PV-839] (Ac-V[Chg][X3][Tic]F-NH2)", "IC50": 25}
{"compound": "CC(=O)N[C@H](C(=O)N[C@H](C(=O)N[C@@H](CCNC(=N)N)C(=O)N1Cc2ccccc2C[C@H]1C(=O)N[C@@H](Cc1ccccc1)C(N)=O)C1CCCCC1)C(C)C", "note": "[PV-562] (Ac-V[Chg][Agb][Tic]F-NH2)", "IC50": 5.3}
{"compound": "CNC(=O)[C@H](Cc1ccccc1)NC(=O)[C@@H]1Cc2ccccc2CN1C(=O)[C@H](CCCNC(=N)N)NC(=O)[C@@H](NC(=O)[C@@H](NC(C)=O)C(C)C)C1Cc2ccccc2C1", "note": "[PV-629] (Ac-V[Igl]R[Tic]F-NHMe)", "IC50": 17}
{"compound": "CC(=O)N[C@H](C(=O)N[C@@H](CCCNC(=N)N)C(=O)N1Cc2ccccc2C[C@H]1C(=O)N[C@@H](Cc1c[nH]c2ccccc12)C(N)=O)C1CCCCC1", "note": "[PV-507] (Ac-[Chg]R[Tic]W-NH2)", "IC50": 48}
{"compound": "CC(=O)N[C@H](C(=O)N[C@H](C(=O)N[C@@H](CCCNC(=N)N)C(=O)N1Cc2ccccc2C[C@H]1C(=O)N[C@@H](Cc1ccc(F)cc1)C(N)=O)C1CCCCC1)C(C)C", "note": "[PV-574] (Ac-V[Chg]R[Tic][Phe(4-F)]-NH2)", "IC50": 2.3}
{"compound": "CC(=O)N[C@H](C(=O)N[C@H](C(=O)N[C@@H](CCNC(N)=O)C(=O)N1Cc2ccccc2C[C@H]1C(=O)N[C@@H](Cc1ccccc1)C(N)=O)C1CCCCC1)C(C)C", "note": "[PV-642] (Ac-V[Chg][Dab(CONH2)][Tic]F-NH2)", "IC50": 4}
{"compound": "CC(=O)N[C@H](C(=O)N[C@@H](CCCNC(=N)N)C(=O)N1Cc2ccccc2C[C@H]1C(=O)N[C@@H](Cc1cccc2[nH]ccc12)C(N)=O)C1CCCCC1", "note": "[PV-476] (Ac-[Chg]R[Tic][Ala(indol-4-yl)]-NH2)", "IC50": 30.1}
{"compound": "CC(=O)N[C@H](C(=O)N[C@H](C(=O)NC(C(=O)N1Cc2ccccc2C[C@H]1C(=O)N[C@@H](Cc1ccccc1)C(N)=O)C1CCN(C(=N)N)CC1)C1CCCCC1)C(C)C", "note": "(some centres unmarked) [PV-810] (Ac-V[Chg][ξGly(4-Pip(1-amidino))][Tic]F-NH2)", "IC50": 6}
{"compound": "CNCC(=O)N[C@H](C(=O)N[C@H](C(=O)N[C@@H](CCCNC(N)=O)C(=O)N1Cc2ccccc2C[C@H]1C(=O)N[C@@H](Cc1ccccc1)C(N)=O)C1CCCCC1)C(C)C", "note": "[PV-662] (H-[Sar]V[Chg][Cit][Tic]F-NH2)", "IC50": 4}
{"compound": "CC(C)[C@H](NC(=O)CCN)C(=O)N[C@H](C(=O)N[C@@H](Cc1ccccc1)C(=O)N[C@@H](Cc1ccccc1)C(=O)N[C@@H](Cc1ccccc1)C(N)=O)C1CCCCC1", "note": "[PV-782] (H-[βAla]V[Chg]FFF-NH2)", "IC50": 150}
{"compound": "CC(=O)N[C@H](C(=O)N[C@H](C(=O)N[C@@H](CCCNC(=N)N)C(=O)N1Cc2ccccc2C[C@H]1C(=O)N[C@@H](Cc1csc2ccccc12)C(N)=O)C1CCCCC1)C(C)C", "note": "[PV-478] (Ac-V[Chg]R[Tic][Bta]-NH2)", "IC50": 2.1}
{"compound": "CC(=O)N[C@H](C(=O)N[C@H](C(=O)N[C@@H](CCCNC(=N)N)C(=O)N1Cc2ccccc2C[C@H]1C(=O)N[C@@H](Cc1ccccc1)C(N)=O)C1CCCC1)C(C)C", "note": "[PV-573] (Ac-V[Gly(cPent)]R[Tic]F-NH2)", "IC50": 6.7}
{"compound": "CC(=O)N[C@H](C(=O)N[C@@H](CCCNC(=N)N)C(=O)N[C@@H](Cc1ccccc1)C(=O)N[C@@H](Cc1ccccc1)C(N)=O)C(C)C", "note": "[PV-119, reference compound] (Ac-VRFF-NH2)", "IC50": 5000}
{"compound": "CC(=O)N[C@H](C(=O)N[C@H](C(=O)N[C@@H](Cc1c[nH]cn1)C(=O)N1Cc2ccccc2C[C@H]1C(=O)N[C@@H](Cc1ccccc1)C(N)=O)C1CCCCC1)C(C)C", "note": "[PV-580] (Ac-V[Chg]H[Tic]F-NH2)", "IC50": 28}
{"compound": "CC(=O)N[C@H](C(=O)N[C@H](C(=O)N[C@@H](CCCNC(=N)N)C(=O)N1Cc2ccccc2C[C@H]1C(=O)N[C@@H](Cc1ccc(Cl)c(Cl)c1)C(N)=O)C1CCCCC1)C(C)C", "note": "[PV-593] (Ac-V[Chg]R[Tic][Phe(3,4-Cl2)]-NH2)", "IC50": 4.1}
{"compound": "CC(C)[C@H](NC(=O)CCN)C(=O)N[C@H](C(=O)N[C@@H](CCCNC(N)=O)C(=O)N1Cc2ccccc2C[C@H]1C(=O)N[C@@H](Cc1ccccc1)C(N)=O)C1CCCCC1", "note": "[PV-664] (H-[βAla]V[Chg][Cit][Tic]F-NH2)", "IC50": 2}
{"biological_target": "T1, HLA-DRB1*15:01", "experiment": "HLA II binding assay (competitive, biotinylated reference peptide)", "settings": "read-out: binding IC50", "units": {"IC50": "nM"}}
{"compound": "CNC(=O)[C@H](Cc1ccccc1)NC(=O)[C@@H]1Cc2ccccc2CN1C(=O)[C@H](CCCNC(=N)N)NC(=O)[C@@H](NC(=O)[C@@H](NC(C)=O)C(C)C)C1CCCCC1", "note": "[PV-625] (Ac-V[Chg]R[Tic]F-NHMe)", "IC50": 16}
{"biological_target": "T1, HLA-DRB1*15:01", "experiment": "HLA II binding assay (competitive, biotinylated reference peptide)", "settings": "reference peptide, DRB1*1501; read-out: IC50", "units": {"IC50": "nM"}}
{"compound": "EAEQLRRAYLDGTGVE [A3 152-166, reference compound]", "IC50": 14}
